# Measurements reported in ChEMBL document CHEMBL5518183, “Broad-spectrum antiviral strategy: Host-targeting antivirals against emerging and re-emerging viruses” (Eur J Med Chem, 2024).
# Legend:
# [1] = test system: Human immunodeficiency virus 1; experiment: Antiviral activity against HIV1 infected in H9 cells assessed as reduction in viral replication; format: functional, organism-based; details: Human immunodeficiency virus 1, H9
# [2] = test system: SARS-CoV-2; experiment: Antiviral activity against SARS-CoV-2 infected in African green monkey Vero E6 cells assessed as reduction in viral replication incubated for 24 hrs by Immunofluorescence assay; format: functional, organism-based; details: Severe acute respiratory syndrome coronavirus 2, Vero C1008, 24 h
# [3] = test system: Influenza B virus; experiment: Antiviral activity against Influenza B virus assessed as inhibition of virus-induced cytopathic effect; format: functional, organism-based
# [4] = test system: Influenza A virus; experiment: Antiviral activity against influenza A virus H1N1 infected in MDCK cells assessed as reduction in virus induced cytopathic effect by CPE assay; format: functional, organism-based
# [5] = test system: dengue virus type 2; experiment: Antiviral activity against DENV-2 infected in human Huh-7 cells at MOI of 0.05 assessed as log reduction of intracellular viral titre measured after 60 hrs post infection by RT-PCR analysis; format: functional, organism-based; details: Huh-7, 60 h
# [6] = test system: West Nile virus; experiment: Antiviral activity against West Nile virus infected in human A549 cells assessed as reduction in virus replication incubated for 72 hrs by MTS assay; format: functional, organism-based; details: A549, 72 h
# [7] = test system: Dengue virus; experiment: Antiviral activity against Dengue virus assessed as inhibition of viral replication; format: functional, organism-based
# [8] = test system: Human immunodeficiency virus 1; experiment: Antiviral activity against HIV1 TC-1 infected in human PBMC assessed as inhibition of viral replication; format: functional, organism-based; details: Human immunodeficiency virus 1, TC-1, PBMC
# [9] = test system: Hepatitis C virus; experiment: Antiviral activity against HCV infected in human Huh-7 cells assessed as reduction in viral infection incubated for 72 hrs by qRT-PCR analysis; format: functional, organism-based, Hepacivirus hominis; details: Huh-7, 72 h
# [10] = test system: Vesicular stomatitis virus; experiment: Antiviral activity against Vesicular stomatitis virus infected in human A549 cells assessed as reduction in virus replication; format: functional
# [11] = test system: Yellow fever virus; experiment: Antiviral activity against Yellow fever virus African green monkey Vero cells assessed as reduction in cytopathic effect; format: functional
# [12] = test system: West Nile virus; experiment: Antiviral activity against West Nile virus infected in African green monkey Vero 76 cells assessed as reduction in cytopathic effect; format: functional
# [13] = test system: Western equine encephalitis virus; experiment: Antiviral activity against Western equine encephalomyelitis virus infected in African green monkey Vero cells assessed as reduction in cytopathic effect; format: functional
# [14] = Cytotoxicity against African green monkey Vero cells assessed as reduction in cell growth incubated for 72 hrs by MTT assay; format: toxicity, cell-based; details: chlorocebus sabaeus
# [15] = test system: Hepatitis B virus; experiment: Antiviral activity against HBV genotype A infected in human HepG2 cells assessed as inhibition of viral replication; format: functional, organism-based
# [16] = test system: Chikungunya virus; experiment: Antiviral activity against CHIKV infected in Vero 76 cells assessed as reduction in cytopathic effect; format: functional, organism-based
# [17] = test system: SARS-CoV-2; experiment: Antiviral activity against SARS-CoV-2 […] B.1.351 Beta infected in human Calu-3 cells assessed as reduction of viral growth measured after 48 hrs by luciferase assay; format: functional, organism-based; details: Severe acute respiratory syndrome coronavirus 2
# [18] = test system: SARS-CoV-2; experiment: Antiviral activity against SARS-CoV-2 B.1.1.7 infected in human Calu-3 cells assessed as inhibition of viral infection measured after 48 hrs by Hoechst 33342 staining based analysis; format: functional, organism-based; details: Severe acute respiratory syndrome coronavirus 2, B.1.1.7, Calu-3, 48 h
# [19] = test system: Human immunodeficiency virus 1; experiment: Antiviral activity against HIV-1 3B infected in human MT4 cells assessed as reduction in virus induced cytopathic effect incubated for 5 days by Cell Titer Glo luminescent assay; format: functional, organism-based; details: Human immunodeficiency virus 1, 3B, MT4, 120 h
# [20] = test system: Respiratory syncytial virus; experiment: Antiviral activity against RSV infected in human HepG2 cells assessed as inhibition of virus induced cytopathic effect measured for 60 mins by MTT assay; format: functional, organism-based; details: HepG2, 1 h
# [21] = test system: Respiratory syncytial virus; experiment: Antiviral activity against RSV A2 infected in human HepG2 cells assessed as inhibition of virus induced cytopathic effect measured after 72 hrs by MTT assay; format: functional, organism-based; details: HepG2, 72 h
# [22] = test system: Hepatitis C virus; experiment: Antiviral activity against Hepatitis C virus infected in Huh7.5 cells assessed as reduction in viral growth; format: functional, organism-based, Hepacivirus hominis
# [23] = test system: Hepatitis C virus; experiment: Antiviral activity against HCV infected in human Huh-7 cells assessed as reduction in viral infection; format: functional, organism-based, Hepacivirus hominis
# [24] = test system: Ebolavirus; experiment: Antiviral activity against Ebola virus infected in African green monkey Vero cells incubated for 3 days by immunofocus assay; format: functional, organism-based; details: Orthoebolavirus, 72 h
# [25] = Cytotoxicity against African green monkey Vero cells assessed as reduction in cell viability measured after 72 hrs by MTT assay; format: toxicity, cell-based; details: chlorocebus sabaeus
# [26] = test system: H9; experiment: Antitumor activity against human H9 cells assessed as cell growth inhibition; format: functional, cell-based
structure (smiles),measurement,setting,value
COc1ccccc1NC(=O)c1ccccc1Sc1ccc([N+](=O)[O-])cc1,EC50,[1],6000 nM
CONC(=O)[C@H]1[C@@H](O)[C@@]2(O)c3c(OC)cc(OC)cc3O[C@@]2(c2ccc(OC)cc2)[C@@H]1c1ccccc1,EC50,[2],1.82 nM
O=C(Nc1cccnc1)c1cccs1,EC50,[3],2300 nM
same,EC50,[4],2300 nM
CN(/N=C/c1ccccc1C(=O)O)c1nc(-c2ccccc2Cl)cs1,EC50,[5],17 nM
CCCCc1cn(-c2ccc(NC(=O)Nc3ccccc3C)cc2)nn1,EC50,[6],970 nM
same,EC50,[7],970 nM
same,EC50,[8],970 nM
same,EC50,[9],970 nM
COC(=O)c1c(-c2c(Cl)cccc2Cl)noc1-c1cnn(-c2cccc(Cl)c2)c1C(F)(F)F,EC90,[10],38.7 nM
same,EC90,[11],12.8 nM
same,EC90,[12],0.31 nM
same,EC90,[13],33.8 nM
same,CC50 at 72 h,[14],5000 nM
CC[C@@H]1NC(=O)[C@H]([C@@H]2O[C@@H](Sc3cccc(OCc4ccccc4)c3)C[C@H]2C)N(C)C(=O)[C@H](C(C)C)N(C)C(=O)[C@H](CC(C)C)N(C)C(=O)[C@H](CC(C)C)N(C)C(=O)[C@@H](C)NC(=O)[C@H](C)NC(=O)[C@H](CC(C)C)N(C)C(=O)[C@H](C(C)C)NC(=O)[C@H](CC(C)C)N(C)C(=O)CN(C)C1=O,IC50,[15],110 nM
COc1cc2c(cc1C(=O)Nc1ccc(C(C)(C)C#N)cc1)CCCCC2,EC50,[16],270 nM
CS(=O)(=O)N[C@@H](CCC(N)=O)C(=O)N[C@@H](Cc1ccccc1)C(=O)N[C@@H](CCCNC(=N)N)C(=O)c1nc2ccccc2s1,IC50,[17],1.9 nM
same,IC50,[18],1.9 nM
COCCNC(=O)[C@@H]1C[C@@H](Sc2nc3ccccc3[nH]2)CN1Cc1ccc2c(c1)Cc1ccccc1-2,EC50,[19],2 nM
same,EC50,[20],2 nM
same,EC50,[21],2 nM
same,EC50,[22],2 nM
C/C=C/C[C@@H](C)[C@@H](O)[C@H]1C(=O)N[C@@H](CC)C(=O)N(C)C(C)C(=O)N(CC)[C@@H](CC(C)C)C(=O)N[C@@H](C(C)C)C(=O)N(C)[C@@H](CC(C)C)C(=O)N[C@@H](C)C(=O)N[C@H](C)C(=O)N(C)[C@@H](CC(C)C)C(=O)N(C)[C@@H](CC(C)C)C(=O)N(C)[C@@H](C(C)C)C(=O)N1C (some centres not stated),EC50,[23],0.27 µg/mL
CCCCCN(CC)c1ccc(Oc2ccc(-c3c(C)c(=O)c4c(F)cccc4n3C)cc2F)cc1,IC50,[24],7 nM
same,CC50 at 72 h,[25],10700 nM
CCN(CC)S(=O)(=O)c1ccc(OC)c(NC(=O)Cc2ccccc2[N+](=O)[O-])c1,EC50,[1],25000 nM
same,IC50,[26],> 100000 nM
